“Also recorded” adds a separate entry of the source. Read-outs that look alike come from different tables or passages of the source. Residues, ends and D or L forms follow the SMILES beside them. *: point of attachment. X2 = O=C(C*)Nc1ccc([As](O)O)cc1; X1 = O=C(C*)Nc1ccccc1[As](O)O
Experiments:
MPTP [1] = target: T1, MPTP (Rattus norvegicus, UniProt Q09073); test: Mitochondria swelling assay (MPT induction, decrease in light scattering at 520 nm); format: biochemical; conditions: for blocking of the effect of GSAO on pore opening: 100 μM GSAO with 3 mM Mg^2+, 100 μM EGTA, 10 μM BKA, 5 μM CsA or 8 mM ADP; for swelling of isolated rat liver mitochondria: GSAO 25-200 μM, GSAA, GSCA 100 μM, 60 min
T1 construct: Mitochondria were isolated from the livers of ˜250 g male Wistar rats; from tissue; host or cells: rat liver mitochondria (male Wistar rats)
T1 sequence (Q09073 2-298 limits assumed): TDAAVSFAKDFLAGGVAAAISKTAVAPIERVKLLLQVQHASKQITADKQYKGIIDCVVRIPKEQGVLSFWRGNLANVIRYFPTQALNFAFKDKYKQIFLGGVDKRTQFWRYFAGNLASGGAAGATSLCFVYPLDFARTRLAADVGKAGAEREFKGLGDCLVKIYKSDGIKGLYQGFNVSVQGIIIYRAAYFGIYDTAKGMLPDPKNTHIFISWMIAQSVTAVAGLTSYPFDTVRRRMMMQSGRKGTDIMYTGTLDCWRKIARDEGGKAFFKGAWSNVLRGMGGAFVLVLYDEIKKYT

[2] = target: T2, mitochondrial permeability transition pore (Rattus norvegicus, UniProt Q09073); format: biochemical
T2 construct: Mitochondria were isolated from the livers of ˜250 g male Wistar rats; from tissue; host or cells: rat liver mitochondria (male Wistar rats)
T2 sequence (Q09073 2-298 limits assumed): T1 sequence (Q09073 2-298 limits assumed)

MPTP [3] = target: T1, MPTP; format: biochemical
BAE cells [4] = tested on: BAE cells
BAE cells [5] = test: cells; conditions: Bos taurus, read-out: IC50 (μM)*
BAE cells [6] = test: Cell viability assay, attached cells (methylene blue), proliferating or growth-quiescent cells; format: cell-based, bovine
Method: BAE or HMEC-1 cells were seeded at a density of 10^4 cells per cell into 96 well plates and allowed to adhere overnight and then treated as indicated.

BAE cells [7] = format: cell-based, bovine
CAM angiogenesis = test: Chick chorioallantoic membrane (CAM) angiogenesis assay; format: in vivo; conditions: 5, 10 or 50 μg per pellet, 48 h
Method: Fertilised 3 day-old white Leghorn eggs (Spafas, Norwich, Conn.) were cracked, the embryos with intact yolks placed in 20×100 mm petri dishes and incubated for 3 days at 37° C. and 3% CO2 (Folkman, 1985). Methylcellulose (Fisher Scientific, Fair Lawn, N.J.) discs containing 5, 10 or 50 μg of either GSAA or GSAO were then applied to the CAM of individual embryos and incubated for 48 h at 37° C. and 3% CO2. The discs were made by desiccation of GSAA or GSAO in 10 μl of 0.45% methycellulose on teflon rods. The CAMs were observed using a stereomicroscope and scored for no obvious affect or inhibition of CAM angiogenesis as defined by avascular zones. On some occasions CAM blood vessels were injected with India ink and photographed.

BxPC-3 tumours = test: Primary tumour growth assay; format: in vivo, SCID mice; conditions: 10 mg/kg/day s.c., all experiments (BxPC-3, HT1080, LLC)
Method: (§1) Female 7 to 9 week old SCID or C57Bl6/J mice were used (Massachusetts General Hospital, Boston, Mass.). Mice were held in groups of 3 to 5 at a 12 hour day and night cycle and were given animal chow and water ad libidum. SCID or C57Bl6/J mice were anaesthetised by inhalation of isoflurane, the dorsal skin shaved and cleaned with ethanol, and a suspension of 2.5×10^6 BxPC-3, HT1080 or LLC cells in 0.2 mL of PBS, or saline for LLC cells, was injected S.C. in the proximal midline. LLC cells were prepared according to O'Reilly et al. (1997). Tumour volume was calculated using the relationship, a·b^2·0.52, where a is the longest and b the shortest diameter.

[8] = Tolerability in tumour-bearing mice; format: in vivo, SCID or C57Bl6/J mice
Method: as §1

Row | Structure (SMILES) | MPTP Swelling Rate Increase/GSAO* Mean (MPTP [3]) | Fold Increase (BAE cells [4]) | IC50 (BAE cells [4]; read-out: IC50 (μM)*) [µM] | other results
1 | Nc1ncnc2c1ncn2[C@@H]1O[C@H](COP(=O)(O)OP(=O)(O)O)[C@@H](O)[C@H]1O [ADP] |  |  |  | blocking of the effect of GSAO on pore opening (MPTP [1]): blocked; blocking of the effect of o-GSAO on pore opening [2]: blocked
2 | CO[C@H](C/C=C\C=C\CC/C=C/C[C@H](C)/C=C/C(=C\C(=O)O)CC(=O)O)/C(C)=C\C=C(/C)C(=O)O [BKA, Bonkrekic acid] |  |  |  | blocking of the effect of GSAO on pore opening (MPTP [1]): blocked
3 | O=C(O)CCC(NC(=O)NC(CSCC(=O)Nc1ccc([As](O)O)cc1)C(=O)O)C(=O)O (stereo not drawn) [Compound 3, retro-HO-Cys-(CH2CONHC6H4-p-As{OH}2)-carbonyl-Glu-OH] | 2.4 | 0.07 | 122 | 
4 | N=C(N)NCCC[C@H](N)C(=O)NCC(=O)N[C@@H](CC(=O)O)C(=O)N[C@@H](CSCC(=O)Nc1ccc([As](O)O)cc1)C(=O)O [Compound 6, H-Arg-Gly-Asp-Cys(CH2CONHC6H4-p-As{OH}2)—OH] (H-RGDC(X2)-OH) | 4.5 | 0.45 | 18.2 | 
5 | NCC(=O)NCC(=O)NC(CSCC(=O)Nc1ccc([As](O)O)cc1)C(=O)O (stereo not drawn) [Compound 7, H-Gly-Gly-Cys(CH2CONHC6H4-p-As{OH}2)—OH] | 2.2 | 0.44 |  | IC50 (BAE cells [5]): 19 µM
6 | CC(C)C(N)C(=O)NC(C(=O)NC(CSCC(=O)Nc1ccc([As](O)O)cc1)C(=O)NCC(=O)O)C(C)O (stereo not drawn) [Compound 8, H-Val-Thr-Cys(CH2CONHC6H4-p-As{OH}2)-Gly-OH] (H-VTC(X2)G-OH; configuration not given here) | 2.1 | 0.95 |  | IC50 (BAE cells [5]): 8.8 µM
7 | NC(=O)CCC(NC(=O)C(Cc1ccccc1)NC(=O)C(Cc1ccc(O)cc1)NC(=O)C(N)CSCC(=O)Nc1ccc([As](O)O)cc1)C(=O)NC(CC(N)=O)C(=O)NC(CSCC(=O)Nc1ccc([As](O)O)cc1)C(=O)O (stereo not drawn) [Compound 9, H-Cys-(CH2CONHC6H4-p-As{OH}2)-Tyr-Phe-Gln-Asn-Cys-(CH2CONHC6H4-p-As{OH}2)—OH] (H-C(X2)YFQNC(X2)-OH; configuration not given here) |  | 0.64 |  | IC50 (BAE cells [4]; 72 h): 12.9 µM
8 | O=C(CSCCCS(=O)(=O)O)Nc1ccc([As](O)O)cc1 [Compound 10, 3-S—(CH2CONHC6H4-p-As{OH}2)-1-propanesulfonic acid] | 2.0 | 0.21 | 39 | 
9 | O=C(O)CCSCC(=O)Nc1ccc([As](O)O)cc1 [Compound 11, 3-S—(CH2CONHC6H4-p-As{OH}2)-1-propionic acid] | 1.3 | 0.05 | 170 | 
10 | O=C(O)CC(SCC(=O)Nc1ccc([As](O)O)cc1)C(=O)O (stereo not drawn) [Compound 13, 1-S—(CH2CONHC6H4-p-As{OH}2)-mercaptosuccinic acid] | 1.6 | 0.19 | 43.3 | 
11 | O=C(CS[C@@H]1O[C@H](CO)[C@@H](O)[C@H](O)[C@H]1O)Nc1ccc([As](O)O)cc1 [Compound 14, 1-S—(CH2CONHC6H4-p-As{OH}2)-β-D-glucose] | 1.1 | 0.08 | 106 | 
12 | O=C(O)Cn1nnnc1SCC(=O)Nc1ccc([As](O)O)cc1 [Compound 21, 5-S—(CH2CONHC6H4-p-As{OH}2)-1-tetrazolacetic acid] | 2.8 | 0.16 |  | IC50 (BAE cells [5]): 51.3 µM
13 | NCC(=O)NCC(=O)N[C@@H](CSCC(=O)Nc1ccccc1[As](O)O)C(=O)O [Compound 22, H-Gly-Gly-Cys(CH2CONHC6H4-o-As{OH}2)—OH] | 6.9 | 46.9 | 0.18 | times more active than the corresponding p-arsenoxide analogue (BAE cells [4]): approximately 106 times
14 | CC(C)C(N)C(=O)NC(C(=O)NC(CSCC(=O)Nc1ccccc1[As](O)O)C(=O)NCC(=O)O)C(C)O (stereo not drawn) [Compound 23, H-Val-Thr-Cys(CH2CONHC6H4-o-As{OH}2)-Gly-OH] (H-VTC(X1)G-OH; configuration not given here) | 5.4 | 19.8 | 0.42 | times more active than the corresponding p-arsenoxide analogue (BAE cells [4]): approximately 20 times
15 | O=C(O)CN(CCOCCOCCN(CC(=O)O)CC(=O)O)CC(=O)O [EGTA, ethylene glycol-bis(beta-aminoethyl ether)-N,N,N′N′-tetraacetic acid] |  |  |  | blocking of the effect of GSAO on pore opening (MPTP [1]): blocked; blocking of GSAO-dependent swelling [2]: blocked
16 | N[C@@H](CCC(=O)N[C@@H](CSCC(=O)Nc1ccc([As](=O)(O)O)cc1)C(=O)NCC(=O)O)C(=O)O [GSAA, 4-(N—((S-glutathionyl)acetyl)amino)-benzenearsonic acid, reference compound] |  |  |  | swelling of isolated rat liver mitochondria (MPTP [1]): without effect; effect on the viability of proliferating BAE cells (BAE cells [6]): no significant effect; effect on O2^− or H2O2 levels (BAE cells [7]): no effect; inhibition of CAM angiogenesis (avascular zones) (CAM angiogenesis): did not inhibit CAM angiogenesis; also recorded: no affects; inhibition of the rate of tumour growth compared to vehicle alone (BxPC-3 tumours): < 20%; adverse affects of administration ([8]; 10 mg/kg/day s.c.): no apparent adverse affects; morphological changes in the heart, lungs, liver, kidneys, and spleen ([8]; 10 mg/kg/day s.c.): no morphological changes; average mice weights over the course of the experiments ([8]; GSAO versus GSAA treatment groups): the same
17 | N[C@@H](CCC(=O)N[C@@H](CSCC(=O)Nc1ccc(C(=O)O)cc1)C(=O)NCC(=O)O)C(=O)O [GSCA, 4-(N—((S-glutathionyl)acetyl)amino)benzoic acid] |  |  |  | swelling of isolated rat liver mitochondria (MPTP [1]): without effect; effect on the viability of proliferating BAE cells (BAE cells [6]; concentrations up to 1.0 mM): no significant effect
18 | [Mg+2] [Mg^2+] |  |  |  | blocking of the effect of GSAO on pore opening (MPTP [1]): blocked; blocking of GSAO-dependent swelling ([2]; FIG. 18 as printed): blocked
